Laboratory results as given in PubChem BioAssay AID330 (DTP/NCI, 2004).
“And” between values parts separate entries of the source, which are not always exact repeats. Equal entries are not always repeated. Inconclusive results and toxic doses are left out.

Tested on: P388 leukemia ip, CD2F1 mice, survival T/C
Assay: NCI In Vivo Anticancer Drug Screen. Data for tumor model P388 Leukemia (intraperitoneal) in CD2F1 (CDF1) mice
Conditions: endpoint: median survival time, higher = longer survival
How it was run: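 Mice carrying the transplanted tumor received test compound or vehicle. Survival was recorded in each group, and the value is the treated-group measurement divided by that of the vehicle-treated control group.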

[1] = dose: 50.0 mg/kg/injection, schedule: Q01DX005 (ip), vehicle: Klucel (hydroxypropylcellulose) (HPC)
[2] = dose: 60.0 mg/kg/injection, schedule: Q01DX005 (ip), vehicle: saline with Tween-80
[3] = dose: 120.0 mg/kg/injection, schedule: Q01DX005 (ip), vehicle: saline with Tween-80
[4] = dose: 240.0 mg/kg/injection, schedule: Q01DX005 (ip), vehicle: saline with Tween-80
[5] = dose: 100.0 mg/kg/injection, schedule: Q04DX003 (ip), vehicle: saline with Tween-80
[6] = dose: 100.0 mg/kg/injection, schedule: Q01DX005 (ip), vehicle: Klucel (hydroxypropylcellulose) (HPC)
[7] = dose: 200.0 mg/kg/injection, schedule: Q01DX005 (ip), vehicle: Klucel (hydroxypropylcellulose) (HPC)

N#CCc1ccccc1-c1ccccc1
T/C (dose: 12.5 mg/kg/injection, schedule: Q01DX005 (ip), vehicle: Klucel (hydroxypropylcellulose) (HPC)): 99 % of control
T/C (dose: 25.0 mg/kg/injection, schedule: Q01DX005 (ip), vehicle: Klucel (hydroxypropylcellulose) (HPC)): 94 % of control
T/C [1]: 99 % of control

O=c1c2ccccc2[nH]c2cc3c(=O)n4ccccc4nc3cc12
T/C (dose: 30.0 mg/kg/injection, schedule: Q01DX005 (ip), vehicle: saline with Tween-80): 94 % of control
T/C [2]: 101 % of control and 91 % of control
T/C [3]: 93 % of control
T/C [4]: 93 % of control

CC(=O)NCc1ccccc1N1CCCC1
T/C (dose: 100.0 mg/kg/injection, schedule: Q04DX003 (ip), vehicle: saline): 101 % of control
T/C (dose: 200.0 mg/kg/injection, schedule: Q04DX003 (ip), vehicle: saline): 106 % of control
T/C (dose: 400.0 mg/kg/injection, schedule: Q04DX003 (ip), vehicle: saline): 101 % of control

C[N+]1(C)CCC(OC(=O)C(O)(c2ccccc2)C2CCCC2)C1 (centres undefined)
T/C (dose: 12.5 mg/kg/injection, schedule: Q01DX009 (ip), vehicle: Klucel (hydroxypropylcellulose) (HPC)): 95 % of control
T/C (dose: 25.0 mg/kg/injection, schedule: Q01DX009 (ip), vehicle: Klucel (hydroxypropylcellulose) (HPC)): 97 % of control
T/C (dose: 25.0 mg/kg/injection, schedule: Q04DX003 (ip), vehicle: saline with Tween-80): 105 % of control
T/C (dose: 50.0 mg/kg/injection, schedule: Q01DX009 (ip), vehicle: Klucel (hydroxypropylcellulose) (HPC)): 89 % of control and 95 % of control
T/C (dose: 50.0 mg/kg/injection, schedule: Q04DX003 (ip), vehicle: saline with Tween-80): 102 % of control
T/C [5]: 99 % of control

O=C1C=CC(=NBr)C=C1
T/C [2]: 108 % of control
T/C [3]: 110 % of control
T/C [4]: 108 % of control

CC12c3ccccc3C(C)(c3ccccc31)C(C(=O)O)C2Br (centres undefined)
T/C [1]: 100 % of control
T/C [6]: 103 % of control
T/C [7]: 95 % of control

O=C(/C=C/c1c(Cl)cccc1Cl)c1ccc(Cl)cc1
T/C [5]: 100 % of control
T/C (dose: 200.0 mg/kg/injection, schedule: Q04DX003 (ip), vehicle: saline with Tween-80): 100 % of control
T/C (dose: 400.0 mg/kg/injection, schedule: Q04DX003 (ip), vehicle: saline with Tween-80): 109 % of control

Cc1ccsc1C(=O)c1ccccc1[N+](=O)[O-]
T/C [1]: 94 % of control
T/C [6]: 94 % of control
T/C [7]: 100 % of control

CCOC(=O)[C]1([Pb]([CH3])([CH3])[CH3])N=NC(C(=O)OC)=C1C(=O)OC (centres undefined)
T/C (dose: 0.78 mg/kg/injection, schedule: Q01DX009 (ip), vehicle: saline): 89 % of control
T/C (dose: 1.56 mg/kg/injection, schedule: Q01DX009 (ip), vehicle: saline): 90 % of control
T/C (dose: 3.12 mg/kg/injection, schedule: Q01DX009 (ip), vehicle: saline): 90 % of control

C[n+]1ccccc1/C=C/c1cccc([N+](=O)[O-])c1
T/C (dose: 5.0 mg/kg/injection, schedule: Q01DX009 (ip), vehicle: saline with Tween-80): 100 % of control
T/C (dose: 10.0 mg/kg/injection, schedule: Q01DX009 (ip), vehicle: saline with Tween-80): 109 % of control
T/C (dose: 20.0 mg/kg/injection, schedule: Q01DX009 (ip), vehicle: saline with Tween-80): 100 % of control

CCN(CC)C1=C(C)C(=O)[C@]2([Si](C)(C)C)[C@](OC)(c3ccc(C(F)(F)F)cc3)[C@]12[Si](C)(C)C
T/C (dose: 100.0 mg/kg/injection, schedule: Q01DX001 (ip), vehicle: saline with Tween-80): 101 % of control
T/C (dose: 200.0 mg/kg/injection, schedule: Q01DX001 (ip), vehicle: saline with Tween-80): 100 % of control
T/C (dose: 400.0 mg/kg/injection, schedule: Q01DX001 (ip), vehicle: saline with Tween-80): 97 % of control

N=C(N)c1ccc2oc(/C=C/c3cc4ccc(C(=N)N)cc4o3)cc2c1
T/C (dose: 400.0 mg/kg/injection, schedule: Q04DX003 (ip), vehicle: suspension in saline): 150 % of control

O=C1/C(=C/c2ccccc2O)SC(=S)N1C1CC1
T/C (dose: 50.0 mg/kg/injection, schedule: Q01DX009 (ip), vehicle: saline with Tween-80): 100 % of control
T/C (dose: 100.0 mg/kg/injection, schedule: Q01DX009 (ip), vehicle: saline with Tween-80): 90 % of control
T/C (dose: 200.0 mg/kg/injection, schedule: Q01DX009 (ip), vehicle: saline with Tween-80): 95 % of control

C=CC12CN(C)C3C4COC(CC41)C1(C(=O)Nc4ccccc41)C32 (centres undefined)
T/C (dose: 1.25 mg/kg/injection, schedule: Q01DX009 (ip), vehicle: saline): 103 % of control
T/C (dose: 2.5 mg/kg/injection, schedule: Q01DX009 (ip), vehicle: saline): 88 % of control
T/C (dose: 5.0 mg/kg/injection, schedule: Q01DX009 (ip), vehicle: saline): 95 % of control
T/C (dose: 7.5 mg/kg/injection, schedule: Q01DX005 (ip), vehicle: Klucel (hydroxypropylcellulose) (HPC)): 98 % of control
T/C (dose: 10.0 mg/kg/injection, schedule: Q01DX009 (ip), vehicle: saline): 106 % of control
T/C (dose: 15.0 mg/kg/injection, schedule: Q01DX005 (ip), vehicle: Klucel (hydroxypropylcellulose) (HPC)): 95 % of control
T/C (dose: 30.0 mg/kg/injection, schedule: Q01DX005 (ip), vehicle: Klucel (hydroxypropylcellulose) (HPC)): 98 % of control
T/C (dose: 60.0 mg/kg/injection, schedule: Q01DX005 (ip), vehicle: Klucel (hydroxypropylcellulose) (HPC)): 102 % of control
